Experimental data taken from US20040053355A1, “Modular approach to on-line synthesis, drug discovery and biochemical transformations using immobilized enzyme reactors” (priority 2000, published 2004).

Biological target: T1, dopamine beta-hydroxylase immobilized onto Glut-P (DBH-Glut-P) (Bos taurus, UniProt P15101)
T1 construct: purchased
T1 sequence (P15101 1-610): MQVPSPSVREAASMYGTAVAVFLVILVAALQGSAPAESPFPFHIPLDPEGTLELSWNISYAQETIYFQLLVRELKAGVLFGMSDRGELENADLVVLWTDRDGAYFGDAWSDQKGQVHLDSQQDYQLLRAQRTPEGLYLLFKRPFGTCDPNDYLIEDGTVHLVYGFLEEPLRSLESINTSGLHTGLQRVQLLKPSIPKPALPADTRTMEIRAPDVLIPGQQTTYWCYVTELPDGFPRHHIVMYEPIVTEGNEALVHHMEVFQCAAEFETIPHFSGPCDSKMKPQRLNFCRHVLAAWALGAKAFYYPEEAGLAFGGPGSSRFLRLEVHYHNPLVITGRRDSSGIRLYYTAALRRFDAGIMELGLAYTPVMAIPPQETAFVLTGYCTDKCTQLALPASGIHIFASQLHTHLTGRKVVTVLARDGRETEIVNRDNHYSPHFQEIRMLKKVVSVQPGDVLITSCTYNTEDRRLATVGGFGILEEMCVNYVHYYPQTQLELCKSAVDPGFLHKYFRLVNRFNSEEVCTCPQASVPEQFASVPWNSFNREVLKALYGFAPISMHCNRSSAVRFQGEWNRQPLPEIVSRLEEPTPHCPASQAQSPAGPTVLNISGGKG
Assay: DBH immobilized onto Glut-P stationary phase (DBH-Glut-P, DBH-Glut-P-SP), batch assay
Format: biochemical, bovine
Details: hydrochloride
Protocol: The enzyme was assayed as follows: four different solutions were prepared A, B, C and D (final concentration). (A) 500 μL of enzyme solution (10 μg/ml); B: 275 μL sodium acetate buffer (10 mM, pH 5.5), 50 μL cupric sulphate (5 μM); C: 25 μL catalase (5 μg/ml), 50 μL ascorbic acid (10 mM), 50 μl sodium fumarate (10 mM); D: 50 μl substrate (5 mM). Solution B was added to solution A, the resulting solution was mixed for 1 min. Solution C was added and the resulting solution was mixed for an additional minute. The reaction was started with the addition of the substrate (D), after which the reaction solution was incubated for 5 min at 37° C. in a shaking bath. […]
The packing material was washed three times with sodium acetate buffer (0.1M, pH 6). […] The enzyme solution (8-10 μg in 1 ml sodium acetate buffer] was added to the packing material, the mixture was vortexed for 2 min and then placed on a shaker/rotator for 6 h at ambient temperature. At the end of 6 h, the suspension was centrifuged, the supernatant decanted and the packing material washed three additional times with the buffer. The amount of residual enzyme was determined utilizing the same procedure as that carried out for the enzyme immobilized onto IAM.

**Q.** How did the Vmax turn out when `Cl.NCCc1ccc(O)cc1` [Tyramine, tyramine hydrochloride] was run?
**A.** 0.112^− μmol/mg/min
